Test results from patent US8288380B2, “Thiophenediamine derivative having urea structure” (Santen Pharmaceutical Co., Ltd., priority 2008, dated 2012).

Tests used:
[1] = test system: human trabecular meshwork cell line (TM-1 cells); test: Test for evaluation of effect of morphological change on trabecular meshwork cells (cell shape index, CSI); type: cell-based; conditions: final concentration 10 μM, 24 hours incubation, Control 0.694, lower CSI indicates greater morphological changes
From the text: Further, as a result of studying an effect morphological change of the present compound on trabecular meshwork cells, i.e., an effect of morphological change of the present compound on trabecular meshwork cells in an evaluation system using the cell shape index (hereinafter referred to as “CSI”) reported in The Journal of Clinical Investigation, 103, 1141-1150 (1999) as an index, it was found the present compound has an excellent effect of morphological change on trabecular meshwork cells.
As a method for evaluating a cellular morphological change, an evaluation system using the cell shape index (hereinafter referred to as “CSI”) as an index has been reported in The Journal of Clinical Investigation, 103, 1141-1150 (1999). Therefore, according to the method described in the above document, an effect of morphological change of the present compounds on trabecular meshwork cells was evaluated.
A human trabecular meshwork cell line (hereinafter referred to as “TM-1 cells”) reported in Investigative Ophthalmology & Visual Science, 43, 151-161 (2002) was used.
Culture medium 1: A reagent was prepared by adding fetal bovine serum (10%), L-glutamine (2 mM), amphotericin B ([…]), and gentamicin (25 μg/mL) to Dulbecco's Modified Eagle Medium (hereinafter referred to as “D-MEM”).
Culture medium 2: A reagent was prepared by adding fetal bovine serum (3%), L-glutamine (2 mM), amphotericin B (2.5 μg/mL), and gentamicin (25 μg/mL) were added to D-MEM.
Cell staining liquid: A mixed liquid of Calcein-AM (16 μM) and Hoechst 33342 (40 μM) was prepared by diluting a Calcein-AM solution (cytoplasmic staining reagent, manufactured by Dojindo Laboratories) and a Hoechst 33342 solution (nuclear staining reagent, manufactured by Dojindo Laboratories) with D-MEM containing L-glutamine (2 mM), amphotericin B (2.5 μg/mL), and gentamicin (25 μg/mL).
TM-1 cells subcultured at 37° C. in a 8% carbon dioxide gas atmosphere were treated with a trypsin/EDTA solution (0.05% trypsin and 0.53 mM tetrasodium ethylenediaminetetraacetate) at 24 hours before performing a drug treatment mentioned below and seeded on a 96-well culture plate. The culture medium 1 was used for the subculture of the cells. The culture medium 2 was used for the cell culture after seeding the cells on the plate.
A test compound was dissolved in DMSO, whereby a 5 mM solution was prepared. Then, the resulting solution was diluted with the culture medium 2, whereby a 200 μM test compound solution was prepared.
It has been reported that Y-27632 which is a Rho kinase inhibitor induces a morphological change in trabecular meshwork cells in Investigative Ophthalmology & Visual Science, 42, 137-144 (2001). Therefore, Y-27632 (produced according to the method described in WO 90/05723) was used as a positive control, and dissolved in DMSO in the same manner as the test compound, whereby a 5 mM solution was prepared, and then, the resulting solution was diluted with the culture medium 2, whereby a 200 μM positive control compound solution was prepared.
1) To a 96-well culture plate, a solution of TM-1 cells adjusted to a cell density of […] was added in an amount of 95 μL (1.5×10^4 cells) per well.
2) Incubation was performed at 37° C. in a 8% carbon dioxide gas atmosphere for 24 hours.
3) The test compound solution or positive control compound solution was added in an amount of 5 μL per well (the final concentration of the test compound or positive control compound was 10 μM). As a control, the culture medium 2 containing DMSO (4%) was added in an amount of 5 μL per well.
4) Incubation was performed at 37° C. in a 8% carbon dioxide gas atmosphere for 24 hours.
5) The cell staining liquid was added in an amount of 10 μL per well.
6) Incubation was performed at 37° C. in a 8% carbon dioxide gas atmosphere for 1 hour to stain the cells.
7) A 37% formaldehyde solution was added in an amount of 10 μL per well.
8) Incubation was performed at room temperature for 1 hour to fix the cells. […]

[2] = test system: male Japanese White rabbits; test: Test for evaluation of intraocular pressure-lowering effect (intracameral administration); type: in vivo, rabbit; conditions: intracameral administration of 20 μL of 1 mM liquid, at 9 hours after administering, versus vehicle control group
From the text: Further, as a result of studying an effect of intraocular pressure reduction of the present compound through intracameral administration using male Japanese white rabbits in order to confirm an actual effect of intraocular pressure reduction of the present compound, it was confirmed that the present compound has an effect of intraocular pressure reduction. […]
One drop of 0.4% oxybuprocaine hydrochloride eye drop was instilled into both eyes of each male Japanese White rabbit to achieve local anesthesia, and thereafter, the intraocular pressure was measured using an applanation tonometer. […] After the lapse of a certain period of time from the administration of the test compound or vehicle, one drop of 0.4% oxybuprocaine hydrochloride eye drop was instilled into the administered eye to achieve local anesthesia, and thereafter, the intraocular pressure was measured using an applanation tonometer.
The intraocular pressure-lowering effect of each test compound was evaluated by calculating an intraocular pressure reduction rate. The intraocular pressure reduction rate (%) was calculated using the following equation. […]

[3] = test system: HDAC (HeLa nuclear extract); test: Test for evaluation of HDAC inhibitory activity (HDAC Fluorimetric Assay/Drug Discovery Kit, Biomol); type: biochemical; conditions: final concentration of the test compound 30 μM, values more than 100% shown as 100%
Procedure: Using HDAC Fluorimetric Assay/Drug Discovery Kit (manufactured by Biomol), HDAC inhibitory activity of the present compounds was measured according to the protocol included with the kit. The kit contains Buffer, HeLa nuclear extract (includes HDAC), Substrate, Developer and Trichostatin A HDAC inhibitor).
A test compound was dissolved in dimethyl sulfoxide (hereinafter referred to as “DMSO”), whereby a 2 mg/mL solution was prepared. Then, the resulting solution was diluted with Buffer containing 5% DMSO, whereby a 150 μM test compound solution was prepared.
1) To a 384-well culture plate, the test compound solution was added in an amount of 2 μL per well.
2) HeLa nuclear extract was diluted 30-fold with Buffer. The resulting solution was added in an amount of 3 μL per well, and then incubation was performed at 37° C. for 2 hours.
3) Substrate was diluted 500-fold with Buffer. The resulting solution was added in an amount of 5 μL per well (the final concentration of the test compound was 30 μM), and then incubation was performed at 37° C. for 10 minutes.
4) Developer was diluted 20-fold with Buffer and Trichostatin A (2 μM) was added to it. The resulting solution was added in an amount of 10 μL per well, and then incubation was performed at room temperature for 15 minutes.
5) The fluorescence intensity of each well was measured using multilabel counter ARVO (manufactured by Wallac) with excitation at 360 nm and emission at 460 nm.
6) A control data was obtained from the same experiment except that Buffer containing 5% DMSO was added instead of the test compound solution as the above-mentioned procedure from 1) to 5).
7) A blank data was obtained from the same experiment except that Buffer containing 5% DMSO was added instead of the test compound solution and that Buffer was added instead of Hela nuclear extract as the above-mentioned procedure from 1) to 5).
Enzyme inhibitory rate (%) was calculated using the following equation. (Enzyme Inhibitory Rate(%))=100×[1−{(Fluorescence Intensity of Test Compound Solution)−(Florescence Intensity of Blank)}/{(Florescence Intensity of Control)−(Florescence Intensity of Blank)}] (Test Results)

Row | Enzyme Inhibitory Rate (%) [3] | SMILES | CSI [1] | Intraocular Pressure Reduction Rate (%) [2]
1 | 100% | CC(C)NC(=O)N(CCN(C)C)Cc1ccc(C(=O)Nc2cscc2N)nc1 [Compound No. 1-43, N-(4-Aminothiophen-3-yl)-5-[1-(2-dimethylaminoethyl)-3-isopropylureidomethyl]pyridine-2-carboxylic acid amide] | 0.522 | 7%
2 | 96% | CCCNC(=O)N(CCCCN1CCOCC1)Cc1ccc(C(=O)Nc2cscc2N)nc1 [Compound No. 1-82, N-(4-Aminothiophen-3-yl)-5-[1-[4-(morpholin-4-yl)butyl]-3-propylureidomethyl]pyridine-2-carboxylic acid amide] | 0.507 | 25%
